# Assay results as given in patent publication US9815788B2, “Anti-angiogenic compounds” (University College Dublin National University of Ireland, …, priority 2012, dated 2017).
# Assays:
# [1] = system: zebrafish hyaloid vasculature; experiment: Quantification of primary hyaloid vasculature branch number in Tg(fli1:EGFP) zebrafish; assay type: in vivo; conditions: for inhibition of developmental angiogenesis of the hyaloid vasculature (number of primary hyaloid vessels): typically 10 μM or 5 μM, from 24 hpf, vs DMSO control; for dose-dependent inhibition of development of hyaloid vessels: decreasing doses 20, 10, 7.5, 5, 2.5, 1 and/or 0.5 μM
# Procedure: (§1) All experiments were carried out under ethical approval granted by the UCD animal research ethics committee. Tg(fli1:EGFP) zebrafish were maintained according to standard procedures on a 14 hr light/10 hr dark cycle at 28° C. Embryos were obtained by natural spawning and developmental stages established by time and morphological criteria. […] Larvae were euthanised, and fixed in 4% PFA at 4° C. overnight before analysis.
# Overall patterning of the vasculature (fin, gut and intersegmental vessels) was examined for abnormalities. Right lenses were dissected from the larvae and transferred to depression slides for observation under epi-fluorescence in the Olympus SZX16. Patterning of the hyaloid vessels on the treated larval lenses was compared to DMSO controls and the archetypal pattern previously described (Alvarez et al., 2007; Alvarez et al., 2009).
# as §1, with “analysis. Lenses were dissected from the larvae and transferred to depression slides for observation under epi-fluorescence in the Olympus SZX16. Patterning of the hyaloid vessels on the treated larval lenses was compared to DMSO controls and the archetypal pattern previously described (Alvarez et al., 2007; Alvarez et al., 2009).” for “analysis.”
# [2] = system: zebrafish intersegmental vessels; experiment: Quantification of intersegmental vessel number in zebrafish; assay type: in vivo
# Procedure: […] Larvae were manually dechorionated, euthanised, and fixed in 4% PFA at 4° C. overnight before analysis. The larvae were then washed with PBS and transferred to depression slides for observation under epi-fluorescence in an Olympus SZX16 fluorescent microscope. The number of intersegmental vessels was counted and the average number was graphed for each drug.
# Larvae were manually dechorionated, euthanised, and fixed in 4% PFA at 4° C. overnight before analysis. The larvae were then washed with PBS and transferred to depression slides for observation under epi-fluorescence in an Olympus SZX16 fluorescent microscope. The number of intersegmental vessels was counted and the average number was graphed for each drug.
Compound,inhibition of developmental angiogenesis of the hyaloid vasculature (number of primary hyaloid vessels) [1],"inhibition of developmental angiogenesis of intersegmental vessels (number of intersegmental vessels) ([2]; 10 μM, from 6 hpf)",also measured
"CCN1CCc2cc(OC)c(OC)cc2C1c1ccc2c(c1)OCO2 (racemic) [Compound 11F-CC10, (rac)-1-Benzo[1,3]dioxol-5-yl-6,7-dimethoxy-2-ethyl-1,2,3,4-tetrahydro-isoquinoline]",inhibit developmental angiogenesis of the zebrafish hyaloid vasculature in a statistically significant manner,–,–
"COc1ccc(Br)cc1C=Cc1ccc2ccccc2n1 [Compound 11B-074, 2-[2-(5-bromo-2-methoxyphenyl)vinyl]quinoline]",inhibit developmental angiogenesis of the zebrafish hyaloid vasculature in a statistically significant manner,–,–
"COc1ccc(I)cc1C=Cc1ccc2ccccc2n1 [Compound 11B-412, 2-[2-(5-iodo-2-methoxyphenyl)vinyl]quinoline]",–,inhibit developmental angiogenesis of zebrafish intersegmental vessels in a statistically significant manner,–
"Cc1cccc(/C=C/c2ccc3cccc(O)c3n2)c1O [Compound 11B-438, 2-[(E)-2-(2-Hydroxy-3-methylphenyl)vinyl]-8-quinolinol]",inhibit developmental angiogenesis of the zebrafish hyaloid vasculature in a statistically significant manner,inhibit developmental angiogenesis of zebrafish intersegmental vessels in a statistically significant manner,–
"Oc1ccccc1/C=C/c1cc(O)c2ccccc2n1 [Compound 11B-470, 2-[(E)-2-(2-Hydroxyphenyl)vinyl]-4-quinolinol]",–,inhibit developmental angiogenesis of zebrafish intersegmental vessels in a statistically significant manner,–
"Oc1cccc2ccc(C=Cc3ccccc3Cl)nc12 [Compound 11B-736, 2-[2-(2-chlorophenyl)vinyl]-8-quinolinol]",–,inhibit developmental angiogenesis of zebrafish intersegmental vessels in a statistically significant manner,–
"CCOc1ccccc1C=Cc1ccc2cccc(O)c2n1 [Compound 11B-739, 2-[2-(2-ethoxyphenyl)vinyl]-8-quinolinol]",inhibit developmental angiogenesis of the zebrafish hyaloid vasculature in a statistically significant manner,–,–
"Cc1ccc2nc(/C=C/c3cccc(O)c3)ccc2c1 [Compound 11B-814, 3-[(E)-2-(6-Methyl-2-quinolinyl)vinyl]phenol]",inhibit developmental angiogenesis of the zebrafish hyaloid vasculature in a statistically significant manner,–,dose-dependent inhibition of development of hyaloid vessels [1]: dose-dependent effect
"Oc1cccc(C=Cc2ccc3ccccc3n2)c1 [Compound 11B_CC2, 3-(2-Quinolin-2-yl-vinyl)-phenol]",inhibit developmental angiogenesis of the zebrafish hyaloid vasculature in a statistically significant manner,inhibit developmental angiogenesis of zebrafish intersegmental vessels in a statistically significant manner,–
"Cl.Oc1cccc(C=Cc2ccc3ccccc3n2)c1 [Compound 11B_CC2_HCl, 3-(2-Quinolin-2-yl-vinyl)-phenol HCl salt]",inhibit developmental angiogenesis of the zebrafish hyaloid vasculature in a statistically significant manner,inhibit developmental angiogenesis of zebrafish intersegmental vessels in a statistically significant manner,–
"Cl.Oc1ccc(C=Cc2ccc3ccccc3n2)cc1 [Compound 11B_CC3_HCl, 4-(2-Quinolin-2-yl-vinyl)-phenol HCl salt]",–,inhibit developmental angiogenesis of zebrafish intersegmental vessels in a statistically significant manner,–
"Cl.Oc1ccccc1CCc1ccc2ccccc2n1 [Compound 11B_CC4_HCl, 2-(2-Quinolin-2-yl-ethyl)-phenol HCl salt]",inhibit developmental angiogenesis of the zebrafish hyaloid vasculature in a statistically significant manner,inhibit developmental angiogenesis of zebrafish intersegmental vessels in a statistically significant manner,"dose-dependent inhibition of development of hyaloid vessels ([1]; HCl salt): inhibit developmental angiogenesis of zebrafish hyaloid vasculature in a dose-dependent statistically significant manner; dose-dependent inhibition of development of hyaloid vessels ([1]; listed as 11B-CC4 HCl, HCl salt): dose-dependent effect"
"Oc1cccc(CCc2ccc3ccccc3n2)c1 [Compound 11B_CC5, 3-(2-Quinolin-2-yl-ethyl)-phenol]",inhibit developmental angiogenesis of the zebrafish hyaloid vasculature in a statistically significant manner,–,–
"Cl.Oc1cccc(CCc2ccc3ccccc3n2)c1 [Compound 11B_CC5_HCl, 3-(2-Quinolin-2-yl-ethyl)-phenol HCl salt]",inhibit developmental angiogenesis of the zebrafish hyaloid vasculature in a statistically significant manner,inhibit developmental angiogenesis of zebrafish intersegmental vessels in a statistically significant manner,"dose-dependent inhibition of development of hyaloid vessels ([1]; HCl salt): inhibit developmental angiogenesis of zebrafish hyaloid vasculature in a dose-dependent statistically significant manner; dose-dependent inhibition of development of hyaloid vessels ([1]; listed as 11B-CC5 HCl, HCl salt): dose-dependent effect"
"C/C(=C\c1ccccc1O)c1ccc2ccccc2n1 [Compound 11B_CC11, (E)-2-(2-Quinolin-2-yl-propenyl)-phenol]",inhibit developmental angiogenesis of the zebrafish hyaloid vasculature in a statistically significant manner,inhibit developmental angiogenesis of zebrafish intersegmental vessels in a statistically significant manner,–
"Oc1ccc(O)c(/C=C/c2ccc3ccccc3n2)c1 [Compound 11B_CC12, (E)-2-(2-Quinolin-2-yl-vinyl)--benzene-1,4-diol]",–,–,"inhibition of developmental angiogenesis of intersegmental vessels (number of intersegmental vessels) ([2]; 11B_CC12 tested at 2.5 μM, n=2): inhibit developmental angiogenesis of zebrafish intersegmental vessels in a statistically significant manner"
"Oc1cccc(C#Cc2ccc3ccccc3n2)c1 [Compound 11B_CC15, 3-Quinolin-2-yl-ylethynyl-phenol]",–,inhibit developmental angiogenesis of zebrafish intersegmental vessels in a statistically significant manner,–
"Cl.Oc1cccc(C#Cc2ccc3ccccc3n2)c1 [Compound 11B_CC15_HCl, 3-Quinolin-2-yl-ylethynyl-phenol HCl salt]",–,inhibit developmental angiogenesis of zebrafish intersegmental vessels in a statistically significant manner,–
"Oc1ccccc1/C=C\c1ccc2ccccc2n1 [Compound 11B_Z, (Z)-2-(2-(Quinolin-2-yl)vinyl) phenol]",inhibit developmental angiogenesis of the zebrafish hyaloid vasculature in a statistically significant manner,inhibit developmental angiogenesis of zebrafish intersegmental vessels in a statistically significant manner,–
"CCOc1cc2c(cc1OCC)C(c1cc3c(cc1Br)OCO3)NCC2 (stereo not shown) [Compound 11F-001, 1-(6-bromo-1,3-benzodioxol-5-yl)-6,7-diethoxy-1,2,3,4-tetrahydroisoquinoline]",inhibit developmental angiogenesis of the zebrafish hyaloid vasculature in a statistically significant manner,–,–
"COc1cc(CN2CCc3ccccc3C2)cc2c1OCO2 [Compound 11F-708, 2-[(7-methoxy-1,3-benzodioxol-5-yl)methyl]-1,2,3,4-tetrahydroisoquinoline]",inhibit developmental angiogenesis of the zebrafish hyaloid vasculature in a statistically significant manner,–,–
"Oc1ccc(-c2ccc3c(c2)OCO3)cc1CN1CCc2ccccc2C1 [Compound 11F-978, 4-(1,3-benzodioxol-5-yl)-2-(3,4-dihydro-2(1H)-isoquinolinylmethyl)phenol]",inhibit developmental angiogenesis of the zebrafish hyaloid vasculature in a statistically significant manner,–,–
